The source of these data is US20260078108A1, “SOLID FORMS OF A ROCK INHIBITOR” (REDX PHARMA PLC, priority 2022, published 2026).

For one assay, the target named is T1, Haspin (Homo sapiens, UniProt Q8TF76).
T1 sequence (Q8TF76 1-798): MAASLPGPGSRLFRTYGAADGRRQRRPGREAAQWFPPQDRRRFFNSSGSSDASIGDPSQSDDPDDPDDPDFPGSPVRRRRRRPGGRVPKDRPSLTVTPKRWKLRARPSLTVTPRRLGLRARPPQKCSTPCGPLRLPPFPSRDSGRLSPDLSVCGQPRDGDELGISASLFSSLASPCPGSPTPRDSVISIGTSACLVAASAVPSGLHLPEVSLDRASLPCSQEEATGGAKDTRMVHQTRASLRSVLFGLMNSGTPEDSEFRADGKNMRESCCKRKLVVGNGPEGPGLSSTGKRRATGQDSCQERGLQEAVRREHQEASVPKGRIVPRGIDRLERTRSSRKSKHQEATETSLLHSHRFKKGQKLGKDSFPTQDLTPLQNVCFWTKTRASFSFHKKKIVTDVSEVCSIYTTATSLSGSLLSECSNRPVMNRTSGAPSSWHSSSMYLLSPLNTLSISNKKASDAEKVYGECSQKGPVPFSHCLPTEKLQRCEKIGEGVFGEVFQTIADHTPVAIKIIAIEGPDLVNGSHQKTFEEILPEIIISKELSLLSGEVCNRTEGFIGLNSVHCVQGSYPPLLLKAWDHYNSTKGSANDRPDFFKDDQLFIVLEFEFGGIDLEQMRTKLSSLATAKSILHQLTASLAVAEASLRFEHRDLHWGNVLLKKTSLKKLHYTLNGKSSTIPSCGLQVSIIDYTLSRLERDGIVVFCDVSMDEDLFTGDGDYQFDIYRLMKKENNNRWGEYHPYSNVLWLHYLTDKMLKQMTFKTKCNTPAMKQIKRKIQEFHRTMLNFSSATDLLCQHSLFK
Put plainly: Kinase panel 33P-ATP filter assay, Haspin. It is filed as biochemical. Conditions: HCl salt tested; ATP Conc. 20 μM (Km); read-out: Compound IC50 (nM) Haspin. The protocol: (§1) The HCl salts of S enantiomer and the R enantiomer of compound A were tested against a panel of kinases.
(§2) Compounds were received as powder and resuspended to 10 mM DMSO stock. Compounds were tested in 10-dose IC50 mode with a 3-fold serial dilution starting at 10 μM. Control compound, staurosporine, was tested in 10-dose IC50 mode with 4-fold serial dilution starting at 20 μM.
(§3) Reaction Conditions: Buffer Conditions: 20 mM HEPES ((4-(2-hydroxyethyl)-1-piperazineethanesulfonic acid; pH 7.5), 10 mM MgCl2, 1 mM EGTA (Ethyleneglycol-bis(p-aminoethyl)-N,N,N′,N′-tetraacetic Acid), 0.01% Brij35, 0.02 mg/ml BSA (Bovine serum albumin), 0.1 mM Na3VO4, 2 mM DTT (Dithiothreitol), 1% DMSO. Reaction Procedure: 1. Prepare indicated substrate in freshly prepared reaction buffer. 2. Deliver required cofactors to the substrate solution above. 3. Deliver indicated kinase into the substrate solution and mix gently. 4. Deliver compounds in DMSO into the kinase reaction mixture utilizing acoustic technology (Echo550). 5. Deliver ^33P-ATP (specific activity 0.01 μCi/μl final) into the reaction mixture to initiate the reaction. 6. Incubate kinase reaction for 120 minutes at room temperature. 7. […] Data Analysis: Kinase activity data were expressed as the percent remaining kinase activity in test samples compared to vehicle (dimethyl sulfoxide) reactions. […]

The target of the next assay is T2, PKCepsilon (Homo sapiens, UniProt Q02156).
T2 sequence (Q02156 1-737): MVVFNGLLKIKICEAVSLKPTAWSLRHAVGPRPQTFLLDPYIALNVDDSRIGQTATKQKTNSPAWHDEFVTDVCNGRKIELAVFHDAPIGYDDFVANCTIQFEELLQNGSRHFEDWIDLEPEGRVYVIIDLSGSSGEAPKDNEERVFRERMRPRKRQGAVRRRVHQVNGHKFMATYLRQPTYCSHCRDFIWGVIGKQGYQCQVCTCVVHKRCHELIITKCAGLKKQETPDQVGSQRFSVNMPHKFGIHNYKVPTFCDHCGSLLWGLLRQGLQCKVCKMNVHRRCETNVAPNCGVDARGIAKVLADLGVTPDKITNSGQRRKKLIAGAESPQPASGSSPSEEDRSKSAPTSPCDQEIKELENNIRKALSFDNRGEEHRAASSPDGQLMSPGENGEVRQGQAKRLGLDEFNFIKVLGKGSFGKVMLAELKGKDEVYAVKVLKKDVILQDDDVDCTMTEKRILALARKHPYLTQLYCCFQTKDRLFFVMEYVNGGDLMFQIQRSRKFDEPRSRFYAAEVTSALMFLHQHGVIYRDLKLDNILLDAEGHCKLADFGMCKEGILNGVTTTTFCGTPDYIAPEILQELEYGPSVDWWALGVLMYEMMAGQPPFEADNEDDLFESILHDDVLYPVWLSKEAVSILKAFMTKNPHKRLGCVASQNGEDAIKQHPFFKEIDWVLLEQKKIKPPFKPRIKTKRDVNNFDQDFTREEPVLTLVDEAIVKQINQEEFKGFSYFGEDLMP
Put plainly: Kinase panel 33P-ATP filter assay, PKCepsilon. The settings on record: HCl salt tested; ATP Conc. 10 μM (Km); read-out: Compound IC50 (nM) PKCepsilon. It is filed as biochemical. The protocol:
as §1, §2, §3

Another assay concerns the target T3, M2 (h) (Homo sapiens, UniProt P08172).
T3 construct: expressed in transfected cells; host or cells: CHO cells
T3 sequence (P08172 1-466): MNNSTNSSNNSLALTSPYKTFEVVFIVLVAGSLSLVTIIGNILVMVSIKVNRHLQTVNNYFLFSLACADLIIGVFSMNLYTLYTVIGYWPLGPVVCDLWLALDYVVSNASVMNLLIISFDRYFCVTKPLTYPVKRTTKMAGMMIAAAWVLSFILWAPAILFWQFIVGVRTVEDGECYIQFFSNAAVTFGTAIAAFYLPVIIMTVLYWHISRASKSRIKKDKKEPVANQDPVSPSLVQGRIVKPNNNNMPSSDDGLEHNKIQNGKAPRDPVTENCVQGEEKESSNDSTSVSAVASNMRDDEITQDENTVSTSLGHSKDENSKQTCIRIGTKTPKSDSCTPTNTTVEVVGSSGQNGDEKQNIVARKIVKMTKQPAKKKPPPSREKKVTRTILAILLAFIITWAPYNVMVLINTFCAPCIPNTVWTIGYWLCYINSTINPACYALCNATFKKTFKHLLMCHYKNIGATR
Put plainly: CEREP panel M2 (h) antagonist effect, cAMP HTRF. In kind it is cell-based. The settings on record: HCl salt tested; CHO cells, acetylcholine (300 nM). The source says:
The use of in vitro pharmacological screening against a diverse range of targets (receptors, ion channels, enzymes and transporters) is used to identify undesirable off-target activity that may cause adverse drug reactions in humans. Screening panels (e.g. SafetyScreen44™ Panel, Eurofins) comprise a selection of off-targets linked with known issues in humans that could hinder or halt the development of drug candidates or market withdrawal if discovered after a drug is approved. The HCl salts of the S enantiomer and the R enantiomer of compound A were tested against a panel of such targets.
The tests were carried out according to the methods described in the following tables and indicated literature references.
(In TR-FRET formats the signal depends on donor and acceptor labels being close together.)

Broadly, the IC50 is the concentration needed to halve the response being measured. Consider `NCc1ccc(C(=O)Nc2ccncc2F)cc1-c1cccc(C(=O)Nc2ccc(SC[C@@H]3CCOC3=O)cc2)c1` [R-enantiomer], for which the results for the IC50 on Haspin, at PKCepsilon and on M2 (h) were 134 nM, 2.9 nM and 6200 nM, respectively.

In the case of `NCc1ccc(C(=O)Nc2ccncc2F)cc1-c1cccc(C(=O)Nc2ccc(SC[C@H]3CCOC3=O)cc2)c1` [S-enantiomer], the figures for the IC50 on Haspin, on PKCepsilon and at M2 (h) were 297 nM, 6.7 nM and above 100000 nM, respectively.
